For data set [1], the system named is HeLa cells. The conditions noted are these: 48 h.
Data set [2] addresses proteinase K (Parengyodontium album, UniProt P06873).
Data set [3] is classed as physicochemical. The conditions noted are these: pH 7.4.
Data set [4] is classed as physicochemical. The conditions noted are these: pH 7.4. This is another data set of the same source.
The format of data set [5] is physicochemical. The following applies: pH 7.4. This is another data set of the same source.

Usually IC50 stands for the concentration that gives 50% inhibition.

Each structure is given as a SMILES string. Non-standard residues stand in square brackets, D forms with d. Residues, ends and D or L forms follow the SMILES beside them. *: point of attachment. d(pY) = N[C@H](Cc1ccc(OP(=O)(O)O)cc1)C(=O)O; Acetyl(2-naphthyl) = O=C(Cc1ccc2ccccc2c1)*; pY = N[C@@H](Cc1ccc(OP(=O)(O)O)cc1)C(=O)O

proteinase K, sequence (P06873 106-384): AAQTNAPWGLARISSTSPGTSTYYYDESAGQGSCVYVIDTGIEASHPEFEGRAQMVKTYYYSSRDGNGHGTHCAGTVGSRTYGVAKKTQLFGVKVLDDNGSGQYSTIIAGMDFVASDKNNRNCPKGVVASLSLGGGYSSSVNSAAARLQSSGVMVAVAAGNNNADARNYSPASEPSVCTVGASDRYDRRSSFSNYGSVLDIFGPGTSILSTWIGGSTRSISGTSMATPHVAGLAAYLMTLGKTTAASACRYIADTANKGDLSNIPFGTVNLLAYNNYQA

Consider `NC(=O)CC[C@@H](NC(=O)[C@@H](CCC(N)=O)NC(=O)[C@@H](CC(N)=O)NC(=O)[C@@H](CC(N)=O)NC(=O)CNC(=O)[C@@H](Cc1ccccc1)NC(=O)[C@@H](Cc1ccccc1)NC(=O)Cc1ccc2ccccc2c1)C(=O)N[C@H](CC(N)=O)C(=O)N[C@H](Cc1ccc(OP(=O)(O)O)cc1)C(=O)O` [Precursor D-3P, N’ffgnnqqnyp] ({Acetyl(2-naphthyl)}-[dF][dF]G[dN][dN][dQ][dQ][dN][d(pY)]-OH), for which the IC50 in data set [1] is above 500 µM. Moreover, the “proteolytic stability towards proteinase K” value in data set [2] is given as “high resistance”.

Compound `NC(=O)CC[C@H](NC(=O)[C@H](CCC(N)=O)NC(=O)[C@H](CC(N)=O)NC(=O)[C@H](CC(N)=O)NC(=O)CNC(=O)[C@H](Cc1ccccc1)NC(=O)[C@H](Cc1ccccc1)NC(=O)Cc1ccc2ccccc2c1)C(=O)N[C@@H](CC(N)=O)C(=O)N[C@@H](Cc1ccc(OP(=O)(O)O)cc1)C(=O)O` [Precursor L-3P, N’FFGNNQQNYp] ({Acetyl(2-naphthyl)}-FFGNNQQN[pY]-OH) showed a concentration for half-maximal inhibition (IC50) in data set [1] of 476 ± 21.4 µM. Also, the “ALP gel: TEM fiber width” value in data set [3] is 8 ± 2 nm. In data set [4], the “ALP gel: dynamic strain sweep, Max. G′” value is reported as 32.8 Pa and the “ALP gel: dynamic strain sweep, critical strains” value (shortened to “ALP gel … critical strains”) was found to be 13.2%. The “time to hydrogel after addition of ALP” value in data set [5] amounted to 10 min. In data set [2], the “proteolytic stability towards proteinase K” value is “almost completely degrade”.

For the compound `NC(=O)CC[C@H](NC(=O)[C@H](CCC(N)=O)NC(=O)[C@H](CC(N)=O)NC(=O)[C@H](CC(N)=O)NC(=O)CNC(=O)[C@H](Cc1ccccc1)NC(=O)[C@H](Cc1ccccc1)NC(=O)Cc1ccc2ccccc2c1)C(=O)N[C@@H](CC(N)=O)C(=O)N[C@@H](Cc1ccc(O)cc1)C(=O)O` [Precursor L-3] ({Acetyl(2-naphthyl)}-FFGNNQQNY-OH), the “ALP gel: TEM fiber width” value in data set [3] is on record as “about 8 ± 2 nm”. Besides, in data set [4], the “ALP gel: dynamic strain sweep, Max. G′” value stood at 33 Pa and the “ALP gel … critical strains” value is on record as 13.2%.

On to `NC(=O)CC[C@@H](NC(=O)[C@@H](CCC(N)=O)NC(=O)[C@@H](CC(N)=O)NC(=O)[C@@H](CC(N)=O)NC(=O)CNC(=O)[C@@H](Cc1ccccc1)NC(=O)[C@@H](Cc1ccccc1)NC(=O)Cc1ccc2ccccc2c1)C(=O)N[C@H](CC(N)=O)C(=O)N[C@H](Cc1ccc(O)cc1)C(=O)O` [Precursor D-3] ({Acetyl(2-naphthyl)}-[dF][dF]G[dN][dN][dQ][dQ][dN][dY]-OH), for which, in data set [4], the “ALP gel: dynamic strain sweep, Max. G′” value came to 132 Pa and the “ALP gel … critical strains” value came out at 7.0%.

These data come from publication PMC4845953 (Journal of materials chemistry. B, Materials for biology …, 2016).
